Data on one compound can be found in article PMC4382313 (Chembiochem : a European journal of chemical biology, 2014).

The target in this assay is WelP2 (Hapalosiphon welwitschii, UniProt A0A067YX78). Briefly: in vitro prenyl diphosphate synthase assay. It counts as biochemical. The note with it: product formed; details in SI Methods.

Turning to `CC(C)=CCC/C(C)=C/COP(=O)(O)OP(=O)(O)O` [GPP], the “in vitro prenyl diphosphate synthase assay” value is reported as “demonstrated that WelP2 is a dedicated geranyl diphosphate synthase to provide GPP (SI Methods)”.
